Key:
[1] = pH at which the peptide starts to undergo self-assembly; type: physicochemical; conditions: in solution
Excerpt: As used herein, the pH at which the self-assembling peptide starts to undergo self-assembly refers to the pH below which a significant extent of self-assembly of the peptides in solution is observed, which means that at least about 25%, about 30%, about 35%, about 40%, about 45%, about 50%, about 55%, about 60%, about 65%, about 70%, about 75%, about 80%, about 85%, about 90%, about 95%, about 99% or even about 100% of the peptides found in the dental care product are assembled. In a preferred embodiment, at least about 25% of the peptides found in the dental care product are assembled below the pH at which the peptide starts to undergo self-assembly.
Further, the skilled person is aware of numerous methods to determine the pH at which a peptide of the present invention will start self-assembly at a given ionic strength. Suitable methods are denoted e.g. in a publication by Aggeli et al. (2003, J Am Chem Soc, 125, 9619-9628).

[2] = Penetration of P11-4 (200 ppm, spiked with 10 ppm ATTO647-P11-4, 25 mM TRIS) into artificial subsurface lesions, confocal microscopy; parameters: species or system human; key to presence of fluorescent P11-4 in lesion, 6 d / presence of fluorescent P11-4 in lesion, 1 min / presence of fluorescent P11-4 in lesion, 2 min / presence of fluorescent P11-4 in lesion, 5 min / presence of fluorescent P11-4 in lesion, 4 d: 1 = no or low presence; 4 = high presence of fluorescent P11-4; Average presence of P11-4: scale not given here; conditions: for presence of fluorescent P11-4 in lesion, 1 min: 1 min incubation; for presence of fluorescent P11-4 in lesion, 2 min: 2 min incubation; for presence of fluorescent P11-4 in lesion, 5 min: 5 min incubation; for presence of fluorescent P11-4 in lesion, 6 d: washing in H2O; for presence of fluorescent P11-4 in lesion, 4 d: washing in Remin. buffer
Method: Creation of artificial lesions on extracted human molar teeth was performed as described by Lo et al. 2010 (J Dent. 38(4):352-359). To define the position of the demineralized subsurface area (i.e., artificial carious lesion or white spot), the tooth was covered with colourless nail varnish, leaving a window of approximately 4×4 mm. The tooth was placed in demineralization buffer (2.2 mM CaCl2, 2.2 mM NaH2PO4, 50 mM acetic acid; pH adjusted with 1 M KOH to 4.4) for 3 d at 37° C. To ensure that all pores are open, as in a typical active caries lesion, the resulting subsurface lesions were treated with 10 μL of 2% NaClO (incubation for 1 min), rinsed, and air-dried at room temperature.
• A 200 ppm (i.e., 200 μg/ml) solution of P11-4 (SEQ ID NO: 2), spiked with 10 ppm ATTO647-P11-4 (fluorescence labelled P11-4 (SEQ ID NO: 6): Ac-QQRFEWEFEQQSGSGC-(ATTO647)-NH2), i.e., 1:20, in 25 mM TRIS buffer was prepared at different pH, in particular, at 8.4 or 8.5 or 6.3, 6.5 or 6.8) • As specified in the table below, tooth were optionally pretreated, e.g., by incubation in human saliva for one day (about 24 hours), optionally followed by 5 min sonication (258 hz with a sonic toothbrush, Sonicare Diamond Clean® (Philips)) or by immersion in 2% NaClO for 1 min. • Tooth were immersed in the P11-4 solution for a defined period of time, 1, 2 or 5 min, and then removed and washed in water for 10 min or in remineralization buffer (2 mM Ca(NO3), 1.2 mM KHPO4, and 60 mM Tris/HCl, pH adjusted to 7.4 with 1 M KOH) for 4 days and/or 6 days. • Confocal assessment after 1, 2 or 5 min incubation was carried out while the teeth were in P11-4 solution, and optionally, after washing in water or in remineralization buffer after 10 min or 4 or 6 days. c) Confocal Microscopy
Samples were placed in a μ-slide I (ibidi, Martinsried) in dest. water and analyzed by a confocal laser microscope (Olympus IX81). The recorded stack of four 2-dimensional images each projected the lesion volume of 51.4 μm thickness, giving a total assessment depth of 205 μm (objective: UPLSAPO 20×/NA 0.75; helium-neon gas laser; excitation: 633 nm and emission: 668 nm). Images were analyzed by Olympus software (FluoView FV1000).

[3] = 200 ppm in a slightly basic buffer
[4] = tooth 1, pH 8.4, no pretreatment
[5] = tooth 2, pH 8.4, no pretreatment
[6] = tooth 3, pH 6.3, saliva pre-incubation
[7] = tooth 4, pH 6.3, no pretreatment
[8] = tooth 5, pH 8.5, saliva pre-incubation
[9] = tooth 10, pH 8.5, no pretreatment
[10] = tooth 11, pH 8.5, saliva pre-incubation
[11] = tooth 12, pH 6.5, no pretreatment
[12] = tooth 13, pH 6.8, saliva pre-incubation
[13] = tooth ZR1, pH 8.5, sonification pretreatment
[14] = tooth ZR2, pH 8.5, saliva pre-incubation then NaClO
[15] = tooth ZR3, pH 8.5, saliva pre-incubation then sonification
[16] = tooth ZR4, pH 8.5, saliva pre-incubation

CH3CO-QQRFEWEFEQQ-NH2 (Ac-QQRFEWEFEQQ-NH2) [terminally modified P11-4]
pH at which the self-assembling peptides start to undergo self-assembly [1]: about 7.5

Ac-QQRFEWEFEQQSGSGC-(ATTO647)-NH2 (Ac-QQRFEWEFEQQSGSGC(ATTO647)-NH2) [fluorescent P11-4]
diffusion of monomeric peptide into artificial carious lesions [2, 3]: can diffuse into the artificial carious lesions and form a stable network there | peptide detected outside the lesions [2, 3]: No significant amounts | effect of pre-incubation with human saliva (pellicle) on presence of fluorescent peptide on the tooth or in the lesions ([2]; pH 8.5, 1, 2, or 5 min, teeth 11, 5 and ZR4, versus no pre-incubation): significantly lower presence | Average presence of P11-4 [2, 4]: 2.7 | presence of fluorescent P11-4 in lesion, 1 min [2, 4]: 4 | presence of fluorescent P11-4 in lesion, 2 min [2, 4]: 2 | presence of fluorescent P11-4 in lesion, 5 min [2, 4]: 2 | presence of fluorescent P11-4 in lesion, 1 min [2, 5]: 1 | presence of fluorescent P11-4 in lesion, 2 min [2, 5]: 3 | presence of fluorescent P11-4 in lesion, 5 min [2, 5]: 3 | Average presence of P11-4 ([2]; tooth 2, pH 8.4, no pretreatment, H2O wash): 2.0 | presence of fluorescent P11-4 in lesion, 6 d [2, 5]: 1 | presence of fluorescent P11-4 in lesion, 1 min [2, 6]: 1 | presence of fluorescent P11-4 in lesion, 2 min [2, 6]: 1 | presence of fluorescent P11-4 in lesion, 5 min [2, 6]: 1 | Average presence of P11-4 ([2]; tooth 3, pH 6.3, saliva pre-incubation, H2O wash): 1.0 | presence of fluorescent P11-4 in lesion, 6 d [2, 6]: 1 | presence of fluorescent P11-4 in lesion, 1 min [2, 7]: 1 | presence of fluorescent P11-4 in lesion, 2 min [2, 7]: 1 | presence of fluorescent P11-4 in lesion, 5 min [2, 7]: 2 | Average presence of P11-4 ([2]; tooth 4, pH 6.3, no pretreatment, H2O wash): 1.3 | presence of fluorescent P11-4 in lesion, 6 d [2, 7]: 1 | Average presence of P11-4 [2, 8]: 1.3 | presence of fluorescent P11-4 in lesion, 1 min [2, 8]: 2 | presence of fluorescent P11-4 in lesion, 2 min [2, 8]: 1 | presence of fluorescent P11-4 in lesion, 5 min [2, 8]: 1 | presence of fluorescent P11-4 in lesion, 1 min [2, 9]: 1 | presence of fluorescent P11-4 in lesion, 2 min [2, 9]: 4 | presence of fluorescent P11-4 in lesion, 5 min [2, 9]: 4 | Average presence of P11-4 ([2]; tooth 10, pH 8.5, no pretreatment, Remin. buffer wash): 2.8 | presence of fluorescent P11-4 in lesion, 4 d [2, 9]: 2 | presence of fluorescent P11-4 in lesion, 1 min [2, 10]: 1 | presence of fluorescent P11-4 in lesion, 2 min [2, 10]: 1 | presence of fluorescent P11-4 in lesion, 5 min [2, 10]: 1 | Average presence of P11-4 ([2]; tooth 11, pH 8.5, saliva pre-incubation, Remin. buffer wash): 1.0 | presence of fluorescent P11-4 in lesion, 4 d [2, 10]: 1 | presence of fluorescent P11-4 in lesion, 1 min [2, 11]: 2 | presence of fluorescent P11-4 in lesion, 2 min [2, 11]: 3.5 | presence of fluorescent P11-4 in lesion, 5 min [2, 11]: 2 | Average presence of P11-4 ([2]; tooth 12, pH 6.5, no pretreatment, Remin. buffer wash): 2.1 | presence of fluorescent P11-4 in lesion, 4 d [2, 11]: 1 | presence of fluorescent P11-4 in lesion, 1 min [2, 12]: 1 | presence of fluorescent P11-4 in lesion, 2 min [2, 12]: 2 | presence of fluorescent P11-4 in lesion, 5 min [2, 12]: 2 | Average presence of P11-4 ([2]; tooth 13, pH 6.8, saliva pre-incubation, Remin. buffer wash): 1.5 | presence of fluorescent P11-4 in lesion, 4 d [2, 12]: 1 | Average presence of P11-4 [2, 13]: 4.0 | presence of fluorescent P11-4 in lesion, 1 min [2, 13]: 4 | presence of fluorescent P11-4 in lesion, 2 min [2, 13]: 4 | presence of fluorescent P11-4 in lesion, 5 min [2, 13]: 4 | Average presence of P11-4 [2, 14]: 3.7 | presence of fluorescent P11-4 in lesion, 1 min [2, 14]: 3 | presence of fluorescent P11-4 in lesion, 2 min [2, 14]: 4 | presence of fluorescent P11-4 in lesion, 5 min [2, 14]: 4 | Average presence of P11-4 [2, 15]: 2.3 | presence of fluorescent P11-4 in lesion, 1 min [2, 15]: 1 | presence of fluorescent P11-4 in lesion, 2 min [2, 15]: 3 | presence of fluorescent P11-4 in lesion, 5 min [2, 15]: 3 | Average presence of P11-4 [2, 16]: 1.3 | presence of fluorescent P11-4 in lesion, 1 min [2, 16]: 1 | presence of fluorescent P11-4 in lesion, 2 min [2, 16]: 1 | presence of fluorescent P11-4 in lesion, 5 min [2, 16]: 2
